In general, IC50 refers to the concentration needed to halve the response being measured. The low end stands for inhibition by little substance, the high end for a need for much substance.

The target of one test is FGFR2 (Homo sapiens (Human), UniProt P21802). The test can be described thus: FGFR2 Biochemical Caliper Assay. As for the experimental part: Compounds of the present invention were also tested in a FGFR2 Biochemical Caliper Assay. Compounds were prepared in 10 mM DMSO solution and serially diluted into 11 concentrations by 3-fold dilution. […] 5 uL of ATP solution (100 uM) was added to start the reaction and the plate was incubated for 90 minutes, then 70 uL of stopping buffer (0.5M EDTA) was added to terminate the reaction. Each well was analyzed using EZ reader.

The next test relates to SNU16 cells. The test can be described thus: SNU16 Cancer Cell Line Proliferation Assay. It is filed as cell-based. To be noted: Homo sapiens; SNU-16 cells. On the procedure:
Compounds of the present invention were also tested in a SNU16 Cancer Cell Line Proliferation Assay, Test compounds were prepared in a 10 mM DMSO stock solution. 45 uL of stock solution was transferred to a 384 well plate, and a 3-fold 11-point dolution was performed. SNU16 cells in a 384 well cell culture plate were seeded and incubated at 37 degrees for 24 hours. 40 nL of each concentration of compound was transferred from the compound plate to a corresponding well in the cell culture plate by Echo550 liquid handler. The plates were incubated for 96 hours, then equilibrated to room temperature for 15 minutes. 20 uL of CellTiter Glo reagent is added into each well, then the plate was shaken gently for 30 minutes at room temperature. Chemiluminescence was then read on an EnVision reader.

Sequence of FGFR2 (P21802 22-821): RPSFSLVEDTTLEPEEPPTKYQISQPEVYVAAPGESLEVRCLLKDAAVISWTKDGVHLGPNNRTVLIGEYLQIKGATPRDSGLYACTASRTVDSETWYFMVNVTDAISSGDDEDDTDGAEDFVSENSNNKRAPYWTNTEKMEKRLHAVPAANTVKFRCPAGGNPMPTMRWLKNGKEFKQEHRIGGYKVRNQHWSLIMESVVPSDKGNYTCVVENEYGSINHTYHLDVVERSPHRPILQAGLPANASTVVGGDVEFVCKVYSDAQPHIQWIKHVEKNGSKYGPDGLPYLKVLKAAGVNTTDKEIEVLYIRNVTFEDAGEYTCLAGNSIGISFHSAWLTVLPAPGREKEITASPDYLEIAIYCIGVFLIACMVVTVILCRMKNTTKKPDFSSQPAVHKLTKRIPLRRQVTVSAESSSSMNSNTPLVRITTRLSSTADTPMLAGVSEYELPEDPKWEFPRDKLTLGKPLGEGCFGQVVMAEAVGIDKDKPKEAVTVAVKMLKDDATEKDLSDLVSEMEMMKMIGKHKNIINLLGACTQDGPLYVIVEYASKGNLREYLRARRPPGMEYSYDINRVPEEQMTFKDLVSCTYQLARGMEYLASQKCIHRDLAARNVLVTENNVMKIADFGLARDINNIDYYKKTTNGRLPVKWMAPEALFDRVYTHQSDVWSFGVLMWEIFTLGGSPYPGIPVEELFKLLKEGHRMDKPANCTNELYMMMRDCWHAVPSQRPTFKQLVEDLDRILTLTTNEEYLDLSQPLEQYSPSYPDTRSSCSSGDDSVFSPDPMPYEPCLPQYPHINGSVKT

Turning to `C=CC(=O)N1CC[C@H](c2c(-c3ccc(Oc4ncccn4)cc3)c3c(N)ncnc3n2CC)C1` (single isomer, unassigned) [Example 710], the values for the IC50 against FGFR2 and with SNU16 cells were 0.25 to 1 µM and 0.1 to 0.25 µM, respectively.

`C=CC(=O)N1CC[C@@H](c2c(-c3ccc(Oc4cccc(C)n4)cc3)c3c(N)ncnc3n2C)C1` (single isomer, unassigned) [Example 711]: the IC50 at FGFR2 is less than 0.1 µM; in the test on SNU16 cells it was not above 0.1 µM.

Take `C=CC(=O)N1CC[C@H](c2c(-c3ccc(Oc4cccc(C)n4)cc3)c3c(N)ncnc3n2C)C1` (single isomer, unassigned) [Example 712]: the IC50 was less than 0.1 µM on FGFR2 and not above 0.1 µM in the test on SNU16 cells.

On to `C=CC(=O)N1CC[C@@H](c2[nH]c3ncnc(N)c3c2-c2ccc(Oc3cccc(C)n3)cc2)C1` (single isomer, unassigned) [Example 752], for which the half-maximal inhibitory concentration (IC50) against FGFR2 was less than 0.1 µM; in the test with SNU16 cells, not above 0.1 µM.

Turning to `C=CC(=O)N1CC[C@H](c2[nH]c3ncnc(N)c3c2-c2ccc(Oc3cccc(C)n3)cc2)C1` (single isomer, unassigned) [Example 754], the results for the IC50 on FGFR2 and with SNU16 cells were 0.25 to 1 µM and 0.1 to 0.25 µM, respectively.

As to `C=CC(=O)Nc1ccc(-c2c(-c3ccc(Oc4cccc(C)n4)c(OC)c3)c3c(N)ncnc3n2C)cc1` [Example 1], the IC50 against FGFR2 is less than 0.1 µM; in the test with SNU16 cells, not above 0.1 µM.

On to `C=C(C)C(=O)Nc1ccc(-c2c(-c3ccc(Oc4cccc(C)n4)c(OC)c3)c3c(N)ncnc3n2C)cc1` [Example 4], for which the IC50 on FGFR2 was less than 0.1 µM; with SNU16 cells, not above 0.1 µM.

Regarding `C=CC(=O)Nc1ccc(-c2c(-c3ccc(Oc4ccccn4)c(OC)c3)c3c(N)ncnc3n2C)cc1` [Example 5], the values for the IC50 against FGFR2 and with SNU16 cells were less than 0.1 µM and not above 0.1 µM, respectively.

Take `C=CC(=O)Nc1ccc(-c2c(-c3ccc(Oc4cccc(C)n4)cc3)c3c(N)ncnc3n2C)cc1F` [Example 11]: the 50% inhibitory concentration (IC50) is less than 0.1 µM on FGFR2 and not above 0.1 µM in the test with SNU16 cells.

Regarding `C=CC(=O)Nc1ccc(-c2c(-c3ccc(Oc4cccc(C)n4)cc3)c3c(N)ncnc3n2C)cc1OC` [Example 14], the half-inhibitory concentration (IC50) at FGFR2 is less than 0.1 µM; in the test on SNU16 cells, not above 0.1 µM.

Take `C=CC(=O)Nc1ccc(-c2c(-c3ccc(Oc4ncccn4)c(OC)c3)c3c(N)ncnc3n2C)cc1` [Example 15]: the results for the half-maximal inhibitory concentration (IC50) against FGFR2 and with SNU16 cells were less than 0.1 µM and not above 0.1 µM, respectively.

`C/C=C/C(=O)Nc1ccc(-c2c(-c3ccc(Oc4cccc(C)n4)c(OC)c3)c3c(N)ncnc3n2C)cc1` [Example 31]: the figures for the half-inhibitory concentration (IC50) at FGFR2 and with SNU16 cells were less than 0.1 µM and not above 0.1 µM, respectively.

In the case of `C=CC(=O)Nc1ccc(-c2c(-c3ccc(Oc4ncc(C)cn4)c(OC)c3)c3c(N)ncnc3n2C)cc1` [Example 32], the figures for the IC50 against FGFR2 and with SNU16 cells were less than 0.1 µM and not above 0.1 µM, respectively.

Regarding `C=CC(=O)Nc1ccc(-c2c(-c3ccc(Oc4cccc(Cl)n4)c(OC)c3)c3c(N)ncnc3n2C)cc1` [Example 35], the IC50 at FGFR2 was less than 0.1 µM; in the test on SNU16 cells, not above 0.1 µM.

On to `C=C(C)C(=O)Nc1ccc(-c2c(-c3ccc(Oc4ncccn4)c(OC)c3)c3c(N)ncnc3n2C)cc1` [Example 36], for which the IC50 against FGFR2 lay in the range of 0.25 to 1 µM; with SNU16 cells it was 0.1 to 0.25 µM.

As to `C=CC(=O)Nc1ccc(-c2c(-c3ccc(Oc4nccc(C)n4)c(OC)c3)c3c(N)ncnc3n2C)cc1` [Example 38], the IC50 is less than 0.1 µM at FGFR2 and not above 0.1 µM in the test on SNU16 cells.

Turning to `C=CC(=O)Nc1ccc(-c2c(-c3ccc(Oc4ccc(C)c(C)n4)c(OC)c3)c3c(N)ncnc3n2C)cc1` [Example 45], the IC50 at FGFR2 is less than 0.1 µM; in the test with SNU16 cells it was not above 0.1 µM.

Regarding `C=CC(=O)Nc1ccc(-c2c(-c3ccc(Oc4ncccn4)c(C(F)(F)F)c3)c3c(N)ncnc3n2C)cc1` [Example 47], the figures for the IC50 on FGFR2 and in the test on SNU16 cells were less than 0.1 µM and not above 0.1 µM, respectively.

Consider `C=CC(=O)Nc1ccc(-c2c(-c3ccc(Oc4ncccn4)c(CC)c3)c3c(N)ncnc3n2C)cc1` [Example 48], for which the IC50 was less than 0.1 µM at FGFR2 and not above 0.1 µM in the test with SNU16 cells.

Regarding `C=CC(=O)Nc1ccc(-c2c(-c3ccc(Oc4ncccn4)c(N(C)C)c3)c3c(N)ncnc3n2C)cc1` [Example 49], the IC50 at FGFR2 is less than 0.1 µM; in the test with SNU16 cells it was not above 0.1 µM.

As to `C=CC(=O)Nc1ccc(-c2c(-c3ccc(Oc4cccc(CC)n4)c(OC)c3)c3c(N)ncnc3n2C)cc1` [Example 50], the IC50 is less than 0.1 µM against FGFR2 and not above 0.1 µM with SNU16 cells.

As for `C=CC(=O)Nc1ccc(-c2c(-c3ccc(Oc4ncccn4)c(OCC)c3)c3c(N)ncnc3n2C)cc1` [Example 51], the IC50 was less than 0.1 µM at FGFR2 and not above 0.1 µM in the test with SNU16 cells.

Turning to `C=CC(=O)Nc1ccc(-c2c(-c3ccc(Oc4ncccn4)c(OC(F)(F)F)c3)c3c(N)ncnc3n2C)cc1` [Example 53], the IC50 against FGFR2 was less than 0.1 µM; in the test with SNU16 cells, not above 0.1 µM.

For the compound `C=CC(=O)Nc1ccc(-c2c(-c3ccc(Oc4ncccn4)cc3)c3c(N)ncnc3n2C)cc1` [Example 54], the IC50 was less than 0.1 µM against FGFR2 and not above 0.1 µM in the test on SNU16 cells.

Regarding `C=CC(=O)Nc1ccc(-c2c(-c3ccc(Oc4ncc(CO)cn4)c(OC)c3)c3c(N)ncnc3n2C)cc1` [Example 60], the IC50 against FGFR2 was less than 0.1 µM; in the test with SNU16 cells, 0.25 to 1 µM.

For `C=C(C)C(=O)Nc1ccc(-c2c(-c3ccc(Sc4ncccn4)cc3)c3c(N)ncnc3n2C)cc1` [Example 69], the IC50 against FGFR2 and with SNU16 cells was 0.25 to 1 µM throughout.

`Cc1cccc(Oc2ccc(-c3c(-c4ccc(NC(=O)C(C)C)cc4)n(C)c4ncnc(N)c34)cc2)n1` [Example 70]: the concentration for half-maximal inhibition (IC50) against FGFR2 and with SNU16 cells was 0.25 to 1 µM throughout.

In the case of `C=CC(=O)Nc1ccc(-c2c(-c3ccc(Oc4ncc(Cl)cn4)c(OC)c3)c3c(N)ncnc3n2C)cc1` [Example 78], the figures for the IC50 against FGFR2 and with SNU16 cells were less than 0.1 µM and not above 0.1 µM, respectively.

Regarding `C=C(C)C(=O)Nc1ccc(-c2c(-c3ccc(Oc4cccc(C)n4)cc3)c3c(N)ncnc3n2CC)cc1` [Example 83], the IC50 was less than 0.1 µM against FGFR2 and not above 0.1 µM in the test with SNU16 cells.

With `C=C(C)C(=O)Nc1ccc(-c2c(-c3ccc(NC(C)=O)c(OC)c3)c3c(N)ncnc3n2C)cc1` [Example 86], the values for the IC50 against FGFR2 and in the test with SNU16 cells were 1 to 100 µM and 0.25 to 1 µM, respectively.

`C=C(C)C(=O)Nc1ccc(-c2c(-c3ccc(Oc4cccc(C)n4)cc3)c3c(N)ncnc3n2C2CC(O)C2)cc1` (centres unmarked) [Example 90]: the figures for the IC50 against FGFR2 and in the test with SNU16 cells were less than 0.1 µM and not above 0.1 µM, respectively.

With `C=C(C)C(=O)Nc1ccc(-c2c(-c3ccc(Oc4cccc(C)n4)cc3)c3c(N)ncnc3n2CCO)cc1` [Example 91], the values for the IC50 against FGFR2 and in the test on SNU16 cells were less than 0.1 µM and not above 0.1 µM, respectively.

Regarding `C=C(C)C(=O)Nc1ccc(-c2c(-c3cc(F)c(Oc4ncccn4)c(Cl)c3)c3c(N)ncnc3n2C)cc1` [Example 94], the figures for the IC50 at FGFR2 and with SNU16 cells were less than 0.1 µM and not above 0.1 µM, respectively.

As for `C=C(C)C(=O)Nc1ccc(-c2c(-c3ccc(C(=O)N4CCCC4)cc3)c3c(N)ncnc3n2C)cc1` [Example 95], the results for the IC50 against FGFR2 and in the test on SNU16 cells were 0.1 to 0.25 µM and not above 0.1 µM, respectively.

Turning to `C=C(C)C(=O)Nc1ccc(-c2c(-c3ccc(Oc4ncc(C)cn4)c(F)c3)c3c(N)ncnc3n2C)cc1` [Example 96], the IC50 was less than 0.1 µM at FGFR2 and not above 0.1 µM in the test on SNU16 cells.

Regarding `C=CC(=O)Nc1ccc(-c2c(-c3ccc(Oc4ncc(NC)cn4)c(OC)c3)c3c(N)ncnc3n2C)cc1` [Example 98], the IC50 on FGFR2 was less than 0.1 µM; in the test on SNU16 cells, not above 0.1 µM.

In the case of `C=C(C)C(=O)Nc1ccc(-c2c(-c3ccc(Oc4ccn(C)n4)c(OC)c3)c3c(N)ncnc3n2C)cc1` [Example 100], the results for the IC50 on FGFR2 and with SNU16 cells were 0.25 to 1 µM and 0.1 to 0.25 µM, respectively.

The values are drawn from US11780845B2 (Relay Therapeutics, Inc., priority 2019, dated 2023).
